The data set can be described thus: Main transition temperature (TM) of phosphatidylcholines. The class given is physicochemical. Particulars: acyl chains at positions 1 and 2 of glycero-3-phosphocholine or 1 and 3 of glycero-2-phosphocholine. Here is the method:
The abovementioned preferred composition of the liposome according to the invention can be made to measure for other temperature ranges by choice of components having the main transition temperature suitable in each case. In table 1, the main transition temperatures (TM) of phosphatidylcholines are indicated whose main transition temperature lies in the range from 0 to 80° C. The main transition temperatures are recognizable as from the table, depending on the chain length and the distribution over the positions 1 and 2 of glycero-3-phosphocholine or 1 and 3 of glycero-2-phosphocholine.

Consider `CCCCCCCCCCCCCCCCCCCC(=O)OC[C@H](COP(=O)([O-])OCC[N+](C)(C)C)OC(=O)CCCCCCCCCCCCCCCCCCC` [1,2-diarachinoyl-], for which the “TM (main transition temperature)” value stood at 66 °C.
Turning to `CCCCCCCCCCCCCCCCCCCCCC(=O)OC[C@H](COP(=O)([O-])OCC[N+](C)(C)C)OC(=O)CCCCCCCCCCCCCCCCCCCCC` [1,2-dibehenoyl-], the “TM (main transition temperature)” value is 75 °C.
For the molecule `CCCCCCCCCCCCCCCCCCCCCCCC(=O)OC[C@H](COP(=O)([O-])OCC[N+](C)(C)C)OC(=O)CCCCCCCCCCCCCCCCCCCCCCC` [1,2-dilignoceroyl-], the “TM (main transition temperature)” value turned out to be 80 °C.
`CCCCCCCCCCCCCC(=O)OC[C@H](COP(=O)([O-])OCC[N+](C)(C)C)OC(=O)CCCCCCCCCCCCC` [1,2-dimyristoyl-]: the “TM (main transition temperature)” value stood at 23 °C.
For the molecule `CCCCCCCCCCCCCCCC(=O)OCC(COP(=O)([O-])OCC[N+](C)(C)C)OC(=O)CCCCCCCCCCCCCCC` (stereo not drawn) [1,2-dipalmitoyl-, 1,2-di-palmitoylglycero-3-phosphocholine], the “TM (main transition temperature)” value was found to be 41 °C.
As for `CCCCCCCCCCCCCCCCCC(=O)OCC(COP(=O)([O-])OCC[N+](C)(C)C)OC(=O)CCCCCCCCCCCCCCCCC` (stereo not drawn) [1,2-distearoyl-, 1,2-distearoylglycero-3-phospho-choline], the “TM (main transition temperature)” value came out at 56 °C.
Take `CCCCCCCCCCCCCC(=O)OCC(COC(=O)CCCCCCCCCCCCC)OP(=O)([O-])OCC[N+](C)(C)C` [1,3-dimyristoyl-]: the “TM (main transition temperature)” value worked out at 19 °C.
`CCCCCCCCCCCCCCCC(=O)OCC(COC(=O)CCCCCCCCCCCCCCC)OP(=O)([O-])OCC[N+](C)(C)C` [1,3-dipalmitoyl-]: the “TM (main transition temperature)” value was determined as 39 °C.
Regarding `CCCCCCCCCCCCCCCCCC(=O)OCC(COC(=O)CCCCCCCCCCCCCCCCC)OP(=O)([O-])OCC[N+](C)(C)C` [1,3-distearoyl-], the “TM (main transition temperature)” value was 53 °C.
For `CCCCCCCC/C=C\CCCCCCCC(=O)O[C@H](COC(=O)CCCCCCCCCCCCCCCCCCCCC)COP(=O)([O-])OCC[N+](C)(C)C` [1-behenoyl-2-oleoyl-] the value was 14 °C; for `CCCCCCCCCCCCCCCC(=O)OC(COC(=O)CCCCCCCCCCCCC)COP(=O)([O-])OCC[N+](C)(C)C` (stereo not drawn) [1-myristoyl-2-palmitoyl], 37 °C.
For the molecule `CCCCCCCCCCCCCCCCCC(=O)O[C@H](COC(=O)CCCCCCCCCCCCC)COP(=O)([O-])OCC[N+](C)(C)C` [1-myristoyl-2-stearoyl-], the “TM (main transition temperature)” value stood at 42 °C.
For the molecule `CCCCCCCCCCCCCCCC(=O)OC[C@H](COP(=O)([O-])OCC[N+](C)(C)C)OC(=O)CCCCCCCCCCC` [1-palmitoyl-2-lauroyl-], the “TM (main transition temperature)” value turned out to be 11 °C.
With `CCCCCCCCCCCCCCCC(=O)OC[C@H](COP(=O)([O-])OCC[N+](C)(C)C)OC(=O)CCCCCCCCCCCCC` [1-palmitoyl-2-myristoyl-], the “TM (main transition temperature)” value is 27 °C.
Turning to `CCCCCCCC/C=C\CCCCCCCC(=O)O[C@H](COC(=O)CCCCCCCCCCCCCCC)COP(=O)([O-])OCC[N+](C)(C)C` [1-palmitoyl-2-oleoyl-], the “TM (main transition temperature)” value turned out to be 5 °C.
The value for `CCCCCCCCCCCCCCCCCC(=O)O[C@H](COC(=O)CCCCCCCCCCCCCCC)COP(=O)([O-])OCC[N+](C)(C)C` [1-palmitoyl-2-stearoyl-] was 52 °C; that for `CCCCCCCCCCCCCCCCCC(=O)OC[C@H](COP(=O)([O-])OCC[N+](C)(C)C)OC(=O)CCCCCCCCCCC` [1-stearoyl-2-lauroyl-] was 17 °C; that for `CCCCCCCCCCCCCCCCCC(=O)OC[C@H](COP(=O)([O-])OCC[N+](C)(C)C)OC(=O)CCCCCCCCCCCCC` [1-stearoyl-2-myristoyl-] was 33 °C.
On to `CCCCCCCC/C=C\CCCCCCCC(=O)O[C@H](COC(=O)CCCCCCCCCCCCCCCCC)COP(=O)([O-])OCC[N+](C)(C)C` [1-stearoyl-2-oleoyl-], for which the “TM (main transition temperature)” value was 7 °C.
With `CCCCCCCCCCCCCCCCCC(=O)OC[C@H](COP(=O)([O-])OCC[N+](C)(C)C)OC(=O)CCCCCCCCCCCCCCC` [1-stearoyl-2-palmitoyl-], the “TM (main transition temperature)” value was determined as 48 °C.
For `CCCCCCCCCCCCCCCCCC(=O)OCC(COC(=O)CCCCCCCCCCCCC)OP(=O)([O-])OCC[N+](C)(C)C` (stereo not drawn) [1-stearoyl-3-myristoyl-], the “TM (main transition temperature)” value amounted to 46 °C.
